By half-life is commonly meant the time in which the quantity being followed falls by half. What is called inhibition is the share of the control response that was lost under treatment. Low readings indicate little suppression, high ones strong suppression. As a reminder, the AUC is concentration integrated over time. Low readings indicate less exposure, high ones more exposure. As a reminder, the IC50 is the concentration needed to halve the response being measured. A low value points to greater potency. By EC50 is commonly meant the concentration needed to bring the measured effect to its halfway point. Low readings indicate greater potency, high ones weaker potency. Usually MRT stands for a mean duration of stay, worked out from the concentration-time curve. By bioavailability is commonly meant dose-corrected exposure relative to a reference, in per cent. The low end stands for poor availability, the high end for good availability. Usually Cmax stands for the maximum level reached in the sampled fluid or tissue. Broadly, the Tmax is the time at which the peak concentration occurs. What is called CC50 is the concentration that lowers cell viability or growth by half. Higher therefore signals lower toxicity to the cells.

Data on 26 compounds can be found in ChEMBL document CHEMBL4312020, “Design, synthesis and biological evaluation of oseltamivir derivatives containing pyridyl group as potent inhibitors of neuraminidase for influenza A” (Eur J Med Chem, 2020).

A short description of series [1]: in vitro. To be noted: rat, liver microsomes.
The target of series [2] is Neuraminidase (Influenza A virus (A/Puerto Rico/8/1934(H1N1))) (UniProt P03468). To be noted: Influenza A virus (A/Anhui/1/2005(H5N1)); at 100 µM.
For series [3] the target is unchanged. The settings on record: Influenza A virus (A/Anhui/1/2005(H5N1)); at 10 µM.
A short description of series [4]: Stability in human plasma assessed as compound remaining incubated for 0 mins by LC-MS/MS analysis. The format is ADME, cell-free. The settings on record: read-out: Stability.
Series [5] can be described thus: Stability in human plasma assessed as compound remaining incubated for 60 mins by LC-MS/MS analysis. It is filed as ADME, cell-free. To be noted: read-out: Stability.
Series [6] can be described thus: Stability in human plasma assessed as compound remaining incubated for 120 mins by LC-MS/MS analysis. The settings on record: read-out: Stability. It is filed as ADME, cell-free.
Series [7] is described as follows: Stability in human plasma assessed as compound remaining incubated for 30 mins by LC-MS/MS analysis. It is filed as ADME, cell-free. The settings on record: read-out: Stability.
Series [8] in a line: Stability in human plasma assessed as compound remaining incubated for 10 mins by LC-MS/MS analysis. The settings on record: read-out: Stability. It is filed as ADME, cell-free.
Series [9] addresses Neuraminidase (Influenza A virus (A/Puerto Rico/8/1934(H1N1))) (UniProt P03468). To be noted: Influenza A virus (A/Anhui/1/2005(H5N1)); at 1 µM.
Series [10] can be described thus: Half life in Sprague-Dawley rat at 50 mg/kg, po measured upto 24 hrs by LC-MS/MS analysis. It is filed as ADME, organism-based. To be noted: in vivo.
The nature of series [11]: AUC in Sprague-Dawley rat at 50 mg/kg, po measured upto 24 hrs by LC-MS/MS analysis. More on the design: dose 50 mg/kg, time < 24 hr, route oral. The format is ADME, organism-based. To be noted: in vivo.
In series [12] the target is Neuraminidase (Influenza A virus (A/Puerto Rico/8/1934(H1N1)), UniProt P03468). More on the design: species or system Influenza A virus (A/Anhui/1/2005(H5N1)).
The subject of series [13] is Influenza A virus. The series can be described thus: microbe, parasite or virus in culture. To be noted: A/Puerto Rico/8/1934(H1N1), MDCK, 72 h.
The nature of series [14]: MRT in Sprague-Dawley rat at 10 mg/kg, iv measured upto 24 hrs by LC-MS/MS analysis. The format is ADME, organism-based. The settings on record: in vivo.
Series [15] is described as follows: in vitro. To be noted: human, liver microsomes. A general note: Liver microsomes are a subcellular fraction often used to study metabolism.
Series [16] relates to Influenza A virus. The series can be described thus: microbe, parasite or virus in culture. The settings on record: (A/LiaoNing-ZhenXing/1109/2010(H1N1), MDCK, 72 h.
Series [17] in a line: Oral bioavailability in Sprague-Dawley rat at 50 mg/kg measured upto 24 hrs by LC-MS/MS analysis. It is filed as ADME, organism-based. The settings on record: in vivo.
The nature of series [18]: in vitro. The settings on record: rat, liver microsomes. This is another data set of the same source.
Series [19] in a line: Cmax in Sprague-Dawley rat at 50 mg/kg, po measured upto 24 hrs by LC-MS/MS analysis. It is filed as ADME, organism-based. More on the design: dose 50 mg/kg, route oral. To be noted: in vivo.
The nature of series [20]: MRT in Sprague-Dawley rat at 50 mg/kg, po measured upto 24 hrs by LC-MS/MS analysis. It is filed as ADME, organism-based. To be noted: in vivo.
A short description of series [21]: Half life in Sprague-Dawley rat at 10 mg/kg, iv measured upto 24 hrs by LC-MS/MS analysis. It is filed as ADME, organism-based. To be noted: in vivo.
The nature of series [22]: Tmax in Sprague-Dawley rat at 50 mg/kg, po measured upto 24 hrs by LC-MS/MS analysis. The format is ADME, organism-based. To be noted: in vivo.
Series [23] can be described thus: Bioavailability in Sprague-Dawley rat at 10 mg/kg, iv measured upto 24 hrs by LC-MS/MS analysis. The format is ADME, organism-based. The settings on record: in vivo.
Series [24] can be described thus: in vitro. To be noted: human, liver microsomes. This is another data set of the same source.
The nature of series [25]: AUC in Sprague-Dawley rat at 10 mg/kg, iv measured upto 24 hrs by LC-MS/MS analysis. It is filed as ADME, organism-based. Also noted: dose 10 mg/kg, time < 24 hr, route intravenous. To be noted: in vivo.
Series [26] in a line: in vitro. The settings on record: dog, MDCK cells.
The target in series [27] is Neuraminidase (Influenza A virus (A/Puerto Rico/8/1934(H1N1)), UniProt P03468). Nature of the series: Inhibition of Influenza A virus A/WSN/1933(H1N1) Neuraminidase using MU-NANA as substrate preincubated for 30 mins followed by substrate addition and measured after 1 hr by spectrofluorometry relative to control.
Series [28] can be described thus: Inhibition of Influenza A virus A/Taiwan/3446/2002(H3N2) Neuraminidase using MU-NANA as substrate preincubated for 30 mins followed by substrate addition and measured after 1 hr by spectrofluorometry relative to control.

Chain of Neuraminidase (Influenza A virus (A/Puerto Rico/8/1934(H1N1))) (P03468 whole entry): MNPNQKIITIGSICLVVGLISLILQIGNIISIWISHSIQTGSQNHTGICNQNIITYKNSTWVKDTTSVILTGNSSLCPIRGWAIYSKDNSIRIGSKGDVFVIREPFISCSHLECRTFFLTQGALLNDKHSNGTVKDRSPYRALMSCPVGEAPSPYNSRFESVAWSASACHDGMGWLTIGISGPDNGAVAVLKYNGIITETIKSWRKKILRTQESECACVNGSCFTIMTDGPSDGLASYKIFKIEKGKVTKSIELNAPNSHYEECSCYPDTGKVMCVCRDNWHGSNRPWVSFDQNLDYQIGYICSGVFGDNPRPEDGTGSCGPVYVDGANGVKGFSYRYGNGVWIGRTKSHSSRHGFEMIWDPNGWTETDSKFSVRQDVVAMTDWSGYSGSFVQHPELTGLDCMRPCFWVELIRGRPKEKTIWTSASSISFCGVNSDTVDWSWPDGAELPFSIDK
Chain of Neuraminidase (Influenza A virus (A/Puerto Rico/8/1934(H1N1)), UniProt P03468) (P03468 whole entry): as above

In the series “in vitro [1]”, `O=C(O)Cc1ccccc1Nc1c(Cl)cccc1Cl` [DICLOFENAC] came in with a half-life at 1 h of 17.1 min.
For `CCC(CC)O[C@@H]1C=C(C(=O)O)C[C@H](Nc2ncc(Br)cc2N)[C@H]1NC(C)=O`, the results for the inhibition in series [2] and in series [3] were 55.9% and 26.8%, respectively.
In the case of `CC(C)[N+](C)(CCOC(=O)C1c2ccccc2Oc2ccccc21)C(C)C` [PROPANTHELINE BROMIDE], in series [4], the remaining at 0 h turned out to be 100%. Also, in series [5], the remaining at 1 h was 10.1%. Also, the remaining at 2 h in series [6] was found to be 0.7%. For the same compound, in series [7], the remaining at 0.5 h is 34.8%. Besides, the remaining at 10 min in series [8] is 68.2%.
For `CCC(CC)O[C@@H]1C=C(C(=O)O)C[C@H](Nc2nc(OC)ccc2NC(=O)c2ccccc2)[C@H]1NC(C)=O`, the inhibition in series [2] is 70.6%.
As to `CCC(CC)O[C@@H]1C=C(C(=O)O)C[C@H](Nc2nc(OC)ccc2NC(C)=O)[C@H]1NC(C)=O`, the inhibition in series [2] came out at 75.7%; in series [9] it was 10.1%.
In the case of `CCC(CC)O[C@@H]1C=C(C(=O)O)C[C@H](Nc2ncccc2N)[C@H]1NC(C)=O`, the half-life in [10] is 94.2 min; in series [21], 30.6 min. Moreover, the figures for the AUC at 24 h in series [11] and in [25] were 358 ng·h/mL and 4540 ng·h/mL, respectively. For the same compound, the results for the inhibition in [2] and in series [3] were 92.4% and 87.6%, respectively. The half-inhibitory concentration (IC50) in series [12] amounted to 320 nM. For the same compound, the values for the EC50 in the series with Influenza A virus [13] and with Influenza A virus [16] were 12.7 µM and 14.3 µM, respectively. In addition, the MRT in series [14] was 11.4 min; in series [20] it was 2.12 h. Moreover, the remaining at 0 h in series [4] was found to be 100%. The half-life at 1 h in the series “in vitro [15]” and in the series “in vitro [1]” was over 145 min throughout. The compound also yielded a bioavailability in series [17] of 1.58%. The remaining at 1 h came to 85.5% in the series “in vitro [18]”, 113% in series [5] and 87.5% in the series “in vitro [24]”. The compound also displayed a Cmax in [19] of 253 ng/mL. Moreover, in series [6], the remaining at 2 h turned out to be 102%. In series [7], the remaining at 0.5 h was 103%. The remaining at 10 min in series [8] came to 95.1%. The Tmax in series [22] stood at 19.8 min. Further, the F in series [23] was 100%.
Take `CCC(CC)O[C@@H]1C=C(C(=O)O)C[C@H](Nc2ccc([N+](=O)[O-])cn2)[C@H]1NC(C)=O`: the inhibition in series [2] was 87.1%; in series [9], 8.9%.
As to `CCC(CC)O[C@@H]1C=C(C(=O)O)C[C@H](Nc2ncc(Br)cc2NC(=O)C(C)C)[C@H]1NC(C)=O`, the figures for the inhibition in series [2] and in [9] were 79.3% and 19.1%, respectively.
In the case of `CCC(CC)O[C@@H]1C=C(C(=O)O)C[C@H](Nc2ccc(NC(C)=O)cn2)[C@H]1NC(C)=O`, the inhibition in series [2] is 38.7%; in series [9] it was 9.6%.
In the case of `CCC(CC)O[C@@H]1C=C(C(=O)O)C[C@H](Nc2ccc(N)cn2)[C@H]1NC(C)=O`, the inhibition in [2] is 67.7%; in series [3] it was 30%.
`CCC(CC)O[C@@H]1C=C(C(=O)O)C[C@H](Nc2nc(OC)ccc2[N+](=O)[O-])[C@H]1NC(C)=O`: the inhibition in [2] came out at 82.9%; in [9], 27.9%.
Regarding `CCC(CC)O[C@@H]1C=C(C(=O)O)C[C@H](Nc2ncc(C)cc2N)[C@H]1NC(C)=O`, the inhibition in series [2] turned out to be 46.8%; in series [3] it was 25.9%.
As to `CCC(CC)O[C@@H]1C=C(C(=O)O)C[C@H](Nc2nc(OC)ccc2N)[C@H]1NC(C)=O`, the inhibition in series [2] is 81.4%; in series [3], 41.3%.
`CCC(CC)O[C@@H]1C=C(C(=O)O)C[C@H](Nc2ncccc2NC(=O)c2ccccc2)[C@H]1NC(C)=O` had an inhibition in series [2] of 7.6%.
For the compound `CCCC(=O)Nc1cc(Br)cnc1N[C@H]1CC(C(=O)O)=C[C@@H](OC(CC)CC)[C@@H]1NC(C)=O`, the inhibition is 41.5% in series [2] and 6.8% in series [9].
The like results for `CCC(CC)O[C@@H]1C=C(C(=O)O)C[C@H](Nc2ncccc2[N+](=O)[O-])[C@H]1NC(C)=O` were, in that order, 76.1% and 9.1%.
Turning to `CCC(CC)O[C@@H]1C=C(C(=O)O)C[C@H](N)[C@H]1NC(C)=O` [OSELTAMIVIR CARBOXYLATE], the values for the concentration giving a half-maximal response (EC50) with Influenza A virus [13] and in the series with Influenza A virus [16] were 2.49 µM and 67.5 µM, respectively. In the series “in vitro [26]”, this compound displayed a CC50 at 72 h of over 1 mM.
Consider `CC(=O)N[C@H]1[C@H]([C@H](O)[C@H](O)CO)OC(C(=O)O)=C[C@@H]1NC(=N)NC(=O)CSc1cccc2ccccc12`, for which the results for the IC50 in [27] and in [28] were 2.3 nM and 2.9 nM, respectively.
Regarding `CCC(CC)O[C@@H]1C=C(C(=O)O)C[C@H](Nc2nccc(C)c2N)[C@H]1NC(C)=O`, the figures for the inhibition in series [2] and in series [3] were 24.2% and 10.7%, respectively.
As for `CCC(CC)O[C@@H]1C=C(C(=O)O)C[C@H](Nc2ccc(NC(=O)c3ccccc3)cn2)[C@H]1NC(C)=O`, in series [2], the inhibition amounted to 18.6%.
On the same count and under the same terms, in the case of `CCC(=O)Nc1ccc(OC)nc1N[C@H]1CC(C(=O)O)=C[C@@H](OC(CC)CC)[C@@H]1NC(C)=O` it was 10.7%; in that of `CCC(CC)O[C@@H]1C=C(C(=O)O)C[C@H](Nc2ncc(Br)cc2NC(C)=O)[C@H]1NC(C)=O`, 46.7%.
In the case of `CCCC(=O)Nc1ccc(OC)nc1N[C@H]1CC(C(=O)O)=C[C@@H](OC(CC)CC)[C@@H]1NC(C)=O`, the inhibition is 76.3% in series [2] and 16% in series [9].
`CCC(CC)O[C@@H]1C=C(C(=O)O)C[C@H](Nc2ncc(Br)cc2NC(=O)c2ccccc2)[C@H]1NC(C)=O` registered an inhibition in series [2] of 36.9%.
Compound `CCCC(=O)Nc1cccnc1N[C@H]1CC(C(=O)O)=C[C@@H](OC(CC)CC)[C@@H]1NC(C)=O` had an inhibition in series [2] of 22.1%.
Compound `CCC(CC)O[C@@H]1C=C(C(=O)O)C[C@H](Nc2ncc(Br)cc2[N+](=O)[O-])[C@H]1NC(C)=O` displayed an inhibition in [2] of 54.3%.
